Experimental data: patent US20240092790A1, “DIHYDROFUROPYRIDINE DERIVATIVES AS RHO- KINASE INHIBITORS” (CHIESI FARMACEUTICI S.P.A., priority 2020, published 2024)

Experiments:
Format in all cases: biochemical
[1] = target: ROCK1 (Homo sapiens, UniProt Q13464); assay: In vitro inhibitory activity assay ROCK1 (ADP-Glo); conditions: ATP 200 μM, Cheng-Prusoff; read-out: ROCK 1 (Ki, range of activity)
Description: (§1) In Vitro Inhibitory Activity Assay Description ROCK1 and ROCK2
(§2) The effectiveness of compounds of the present invention to inhibit Rho kinase activity can be determined in a 10 μl assay containing 40 mM Tris pH7.5, 20 mM MgCl2 0.1 mg/mL BSA, 50 μM DTT and 2.5 μM peptide substrate (Myelin Basic Protein) using an ADP-Glo kit (Promega). Compounds were dissolved in DMSO such that the final concentration of DMSO was 1% in the assay. All reactions/incubations are performed at 25° C. Compound (2 ul) and either Rho kinase 1 or 2 (4 μl) were mixed and incubated for 30 mins. Reactions were initiated by addition of ATP (4 μl) such that the final concentration of ATP in the assay was 200 μM. After a 1 hour incubation 10 μl of ADP-Glo Reagent was added and after a further 1 hour incubation 20 ul of Kinase Detection Buffer was added and the mixture incubated for a further 45 minutes. The luminescent signal was measured on a luminometer. […] Compounds were tested in dose-response format and the inhibition of kinase activity was calculated at each concentration of compound. To determine the IC50 (concentration of compound required to inhibit 50% of the enzyme activity) data were fit to a plot of % inhibition vs Log 10 compound concentration using a sigmoidal fit with a variable slope and fixing the maximum to 100% and the minimum to 0%. To determine the Ki values the Cheng-Prusoff equation was utilized (Ki=IC50/(1+[S]/Km).

[2] = target: PKA (Homo sapiens, UniProt P17612); assay: In vitro inhibitory activity assay for PKA (ADP-Glo), reported as selectivity ratio vs ROCK2; conditions: Ki value for PKA divided by Ki value of ROCK2
Description: In Vitro Inhibitory Activity Assay Description for PKA
The effectiveness of compounds of the present invention to inhibit PKA activity can be determined in a 10 μl assay containing 40 mM Tris pH7.5, 20 mM MgCl2 0.1 mg/ml BSA, 50 μM DTT and 260 μM peptide substrate (kemptide) using an ADP-Glo kit (Promega). Compounds were dissolved in DMSO such that the final concentration of DMSO was 1% in the assay. All reactions/incubations are performed at 25° C. Compound and PKA enzyme (6 μl) were mixed and incubated for 30 mins. Reactions were initiated by addition of ATP (4 μl) such that the final concentration of ATP in the assay was 10 μM. After a 30 minute incubation 10p of ADP-Glo Reagent was added and after a further 1 hour incubation 20 μl of Kinase Detection Buffer was added and the mixture incubated for a further 45 minutes. The luminescent signal was measured on a luminometer. […] Compounds were tested in dose-response format and the inhibition of kinase activity was calculated at each concentration of compound. To determine the IC50 (concentration of compound required to inhibit 50% of the enzyme activity) data were fit to a plot of % inhibition vs Log10 compound concentration using a sigmoidal fit with a variable slope and fixing the maximum to 100% and the minimum to 0%. To determine the Ki values the Cheng-Prusoff equation was utilized (Ki=IC50/(1+[S]/Km).
In vitro inhibitory activities for PKA were reported as selectivity ratio vs. ROCK-2.

[3] = target: ROCK2 (Homo sapiens, UniProt O75116); assay: In vitro inhibitory activity assay ROCK2 (ADP-Glo); conditions: ATP 200 μM, Cheng-Prusoff; read-out: ROCK2 (Ki, range of activity)
ROCK2, sequence (O75116 whole entry): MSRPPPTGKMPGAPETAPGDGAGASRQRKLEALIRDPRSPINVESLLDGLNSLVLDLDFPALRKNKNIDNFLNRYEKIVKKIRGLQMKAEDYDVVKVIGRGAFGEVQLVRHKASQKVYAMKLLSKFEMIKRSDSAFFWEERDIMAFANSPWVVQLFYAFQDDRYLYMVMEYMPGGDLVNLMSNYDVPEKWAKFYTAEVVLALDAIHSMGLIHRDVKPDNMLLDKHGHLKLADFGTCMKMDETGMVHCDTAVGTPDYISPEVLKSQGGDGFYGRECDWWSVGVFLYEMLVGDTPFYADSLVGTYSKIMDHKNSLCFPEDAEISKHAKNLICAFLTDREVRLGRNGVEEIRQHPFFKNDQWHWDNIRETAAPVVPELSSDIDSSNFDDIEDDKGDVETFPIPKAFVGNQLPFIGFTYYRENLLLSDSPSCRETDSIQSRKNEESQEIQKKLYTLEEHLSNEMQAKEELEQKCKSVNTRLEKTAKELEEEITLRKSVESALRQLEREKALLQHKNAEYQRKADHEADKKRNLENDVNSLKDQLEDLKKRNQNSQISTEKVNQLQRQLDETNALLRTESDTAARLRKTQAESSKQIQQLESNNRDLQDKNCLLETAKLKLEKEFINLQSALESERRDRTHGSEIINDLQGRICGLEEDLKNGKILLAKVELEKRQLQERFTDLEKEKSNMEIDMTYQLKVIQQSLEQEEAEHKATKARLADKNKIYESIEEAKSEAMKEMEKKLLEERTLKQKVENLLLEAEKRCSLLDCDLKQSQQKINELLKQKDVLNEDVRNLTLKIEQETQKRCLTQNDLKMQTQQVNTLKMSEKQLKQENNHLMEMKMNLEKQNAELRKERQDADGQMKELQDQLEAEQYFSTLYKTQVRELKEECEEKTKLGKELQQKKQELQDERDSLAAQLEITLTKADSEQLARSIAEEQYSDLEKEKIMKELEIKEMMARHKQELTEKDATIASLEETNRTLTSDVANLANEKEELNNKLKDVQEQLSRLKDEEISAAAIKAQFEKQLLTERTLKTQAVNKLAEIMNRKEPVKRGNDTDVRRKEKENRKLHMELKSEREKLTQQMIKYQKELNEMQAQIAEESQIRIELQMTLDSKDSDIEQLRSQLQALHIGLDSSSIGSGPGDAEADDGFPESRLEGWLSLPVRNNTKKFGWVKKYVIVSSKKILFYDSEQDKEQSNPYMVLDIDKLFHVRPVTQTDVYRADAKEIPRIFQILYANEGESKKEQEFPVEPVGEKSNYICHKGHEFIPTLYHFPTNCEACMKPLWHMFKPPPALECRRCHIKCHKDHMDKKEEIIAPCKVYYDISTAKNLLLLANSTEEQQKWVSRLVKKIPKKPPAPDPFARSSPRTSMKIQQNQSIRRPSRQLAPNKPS
Description: as §1, §2

ROCK1, sequence (Q13464 whole entry): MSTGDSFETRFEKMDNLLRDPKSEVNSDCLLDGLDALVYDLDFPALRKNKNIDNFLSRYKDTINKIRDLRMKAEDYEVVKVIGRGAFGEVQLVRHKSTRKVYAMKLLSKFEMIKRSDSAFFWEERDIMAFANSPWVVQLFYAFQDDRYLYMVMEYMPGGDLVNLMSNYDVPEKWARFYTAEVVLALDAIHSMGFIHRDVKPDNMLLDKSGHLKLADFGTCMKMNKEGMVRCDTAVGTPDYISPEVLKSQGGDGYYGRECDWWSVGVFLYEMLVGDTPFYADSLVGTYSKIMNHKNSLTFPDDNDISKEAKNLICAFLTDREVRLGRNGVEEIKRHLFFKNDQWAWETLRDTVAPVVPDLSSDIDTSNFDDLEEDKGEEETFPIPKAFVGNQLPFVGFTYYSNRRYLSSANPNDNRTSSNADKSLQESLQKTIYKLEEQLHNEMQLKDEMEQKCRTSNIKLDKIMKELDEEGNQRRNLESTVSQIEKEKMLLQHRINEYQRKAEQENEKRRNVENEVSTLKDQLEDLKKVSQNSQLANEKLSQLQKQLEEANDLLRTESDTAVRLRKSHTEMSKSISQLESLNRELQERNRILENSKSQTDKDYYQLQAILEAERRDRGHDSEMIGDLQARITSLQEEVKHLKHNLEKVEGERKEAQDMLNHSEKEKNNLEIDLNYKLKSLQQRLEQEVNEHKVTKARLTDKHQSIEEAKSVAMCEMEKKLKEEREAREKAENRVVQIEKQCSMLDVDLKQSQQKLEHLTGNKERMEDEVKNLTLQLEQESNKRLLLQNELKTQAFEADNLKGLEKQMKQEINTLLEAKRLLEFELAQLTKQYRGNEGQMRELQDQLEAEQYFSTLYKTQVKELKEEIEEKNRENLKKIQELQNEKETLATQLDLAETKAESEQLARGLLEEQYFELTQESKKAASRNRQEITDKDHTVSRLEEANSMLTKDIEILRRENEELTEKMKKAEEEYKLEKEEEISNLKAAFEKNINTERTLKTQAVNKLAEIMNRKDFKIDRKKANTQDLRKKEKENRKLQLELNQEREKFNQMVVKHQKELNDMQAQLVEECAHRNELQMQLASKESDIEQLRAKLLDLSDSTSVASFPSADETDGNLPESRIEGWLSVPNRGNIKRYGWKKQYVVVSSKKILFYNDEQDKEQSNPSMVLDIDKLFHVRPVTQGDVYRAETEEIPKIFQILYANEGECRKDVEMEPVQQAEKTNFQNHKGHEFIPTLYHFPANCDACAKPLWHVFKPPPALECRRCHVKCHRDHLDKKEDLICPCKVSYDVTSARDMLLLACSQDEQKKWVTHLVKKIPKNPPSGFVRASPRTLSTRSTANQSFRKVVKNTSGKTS

| Ki [1] [nM] | Ratio (PKA/ROCK2) [2] | Ki [3] [nM] | SMILES |
| --- | --- | --- | --- |
| ≤ 3 | *** (ratio≥10) | ≤ 3 | Nc1nccc(-c2cnc(NCc3cccc(C(=O)N[C@H]4C[C@H]4F)c3)c3c2OCC3)n1 [Example 47, 3-(((7-(2-Aminopyrimidin-4-yl)-2,3-dihydrofuro[3,2-c]pyridin-4-yl)amino)methyl)-N-((1S,2R)-2-fluorocyclopropyl)benzamide] |
| 3 to 30 | *** (ratio≥10) | ≤ 3 | COCCCC(=O)Nc1cccc(CNc2ncc(-c3ccnc(N)n3)c3c2CCO3)c1 [Example 64, N-(3-(((7-(2-aminopyrimidin-4-yl)-2,3-dihydrofuro[3,2-c]pyridin-4-yl)amino)methyl)phenyl)-4-methoxybutanamide] |
| ≤ 3 | *** (ratio≥10) | ≤ 3 | COC(C)(C)CNC(=O)c1cccc(CNc2ncc(-c3ccnc(N)n3)c3c2CCO3)c1 [Example 27, 3-(((7-(2-Aminopyrimidin-4-yl)-2,3-dihydrofuro[3,2-c]pyridin-4-yl)amino)methyl)-N-(2-methoxy-2-methylpropyl)benzamide] |
| ≤ 3 | *** (ratio≥10) | ≤ 3 | CC(C)(F)CNC(=O)c1cccc(CNc2ncc(-c3ccnc(N)n3)c3c2CCO3)c1 [Example 31, 3-(((7-(2-Aminopyrimidin-4-yl)-2,3-dihydrofuro[3,2-c]pyridin-4-yl)amino)methyl)-N-(2-fluoro-2-methylpropyl)benzamide] |
| 3 to 30 | ** (5≤ratio<10) | 3 to 30 | CC1(NC(=O)c2cccc(CNc3ncc(-c4ccnc(N)n4)c4c3CCO4)c2)CC1 [Example 22, 3-(((7-(2-Aminopyrimidin-4-yl)-2,3-dihydrofuro[3,2-c]pyridin-4-yl)amino)methyl)-N-(1-methylcyclopropyl)benzamide] |
| ≤ 3 | *** (ratio≥10) | ≤ 3 | Nc1nccc(-c2cnc(NCc3cccc(C(=O)NCCC(F)F)c3)c3c2OCC3)n1 [Example 50, 3-(((7-(2-Aminopyrimidin-4-yl)-2,3-dihydrofuro[3,2-c]pyridin-4-yl)amino)methyl)-N-(3,3-difluoropropyl)benzamide] |
| ≤ 3 | *** (ratio≥10) | ≤ 3 | CC(C)(C)N1CC(CNC(=O)c2cccc(CNc3ncc(-c4ccnc(N)n4)c4c3CCO4)c2)CC1=O (single isomer, unassigned) [Example 33, 3-(((7-(2-Aminopyrimidin-4-yl)-2,3-dihydrofuro[3,2-c]pyridin-4-yl)amino)methyl)-N-((1-(tert-butyl)-5-oxopyrrolidin-3-yl)methyl)benzamide] |
| ≤ 3 | ** (5≤ratio<10) | ≤ 3 | Nc1nccc(-c2cnc(NCc3cccc(C(=O)NC4CC(F)(F)C4)c3)c3c2OCC3)n1 [Example 10, 3-(((7-(2-Aminopyrimidin-4-yl)-2,3-dihydrofuro[3,2-c]pyridin-4-yl)amino)methyl)-N-(3,3-difluorocyclobutyl)benzamide] |
| ≤ 3 | *** (ratio≥10) | ≤ 3 | Nc1nccc(-c2cnc(NCc3cccc(C(=O)NC4CN(C5COC5)C4)c3)c3c2OCC3)n1 [Example 24, 3-(((7-(2-aminopyrimidin-4-yl)-2,3-dihydrofuro[3,2-c]pyridin-4-yl)amino)methyl)-N-(1-(oxetan-3-yl)azetidin-3-yl)benzamide] |
| ≤ 3 | *** (ratio≥10) | ≤ 3 | CC1(C)CC(NC(=O)c2cccc(CNc3ncc(-c4ccnc(N)n4)c4c3CCO4)c2)CO1 (stereo not drawn) [Example 3, 3-(((7-(2-Aminopyrimidin-4-yl)-2,3-dihydrofuro[3,2-c]pyridin-4-yl)amino)methyl)-N-(5,5-dimethyltetrahydrofuran-3-yl)benzamide] |
| ≤ 3 | *** (ratio≥10) | ≤ 3 | Nc1nccc(-c2cnc(NCc3cccc(C(=O)NC4CC4F)c3)c3c2OCC3)n1 (single isomer, unassigned) [Example 46, Trans 3-(((7-(2-Aminopyrimidin-4-yl)-2,3-dihydrofuro[3,2-c]pyridin-4-yl)amino)methyl)-N-(2-fluorocyclopropyl)benzamide] |
| ≤ 3 | *** (ratio≥10) | ≤ 3 | CC(C)OCCCNC(=O)c1cccc(CNc2ncc(-c3ccnc(N)n3)c3c2CCO3)c1 [Example 15, 3-(((7-(2-Aminopyrimidin-4-yl)-2,3-dihydrofuro[3,2-c]pyridin-4-yl)amino)methyl)-N-(3-isopropoxypropyl)benzamide] |
| ≤ 3 | *** (ratio≥10) | ≤ 3 | CO[C@H]1C[C@@H](NC(=O)c2cccc(CNc3ncc(-c4ccnc(N)n4)c4c3CCO4)c2)C1 [Example 18, 3-(((7-(2-aminopyrimidin-4-yl)-2,3-dihydrofuro[3,2-c]pyridin-4-yl)amino)methyl)-N-((1s,3s)-3-methoxycyclobutyl)benzamide] |
| ≤ 3 | *** (ratio≥10) | ≤ 3 | COC(C)(C)CCNC(=O)c1cccc(CNc2ncc(-c3ccnc(N)n3)c3c2CCO3)c1 [Example 36, 3-(((7-(2-Aminopyrimidin-4-yl)-2,3-dihydrofuro[3,2-c]pyridin-4-yl)amino)methyl)-N-(3-methoxy-3-methylbutyl)benzamide] |
| > 30 | *** (ratio≥10) | 3 to 30 | COCCCNC(=O)c1ccc(F)c(CNc2ncc(-c3ccnc(N)n3)c3c2CCO3)c1 [Example 62, 3-(((7-(2-Aminopyrimidin-4-yl)-2,3-dihydrofuro[3,2-c]pyridin-4-yl)amino)methyl)-4-fluoro-N-(3-methoxypropyl)benzamide] |
| > 30 | *** (ratio≥10) | 3 to 30 | CNC(=O)c1cccc(CNc2ncc(-c3ccnc(N)n3)c3c2CCO3)n1 [Example 63, 6-(((7-(2-Aminopyrimidin-4-yl)-2,3-dihydrofuro[3,2-c]pyridin-4-yl)amino)methyl)-N-methylpicolinamide] |
| ≤ 3 | *** (ratio≥10) | ≤ 3 | Nc1nccc(-c2cnc(NCc3cccc(C(=O)NC4CC4)c3)c3c2OCC3)n1 [Example 4, 3-(((7-(2-Aminopyrimidin-4-yl)-2,3-dihydrofuro[3,2-c]pyridin-4-yl)amino)methyl)-N-cyclopropylbenzamide] |
| ≤ 3 | *** (ratio≥10) | ≤ 3 | CN1CCOC(CNC(=O)c2cccc(CNc3ncc(-c4ccnc(N)n4)c4c3CCO4)c2)C1 (single isomer, unassigned) [Example 35, 3-(((7-(2-Aminopyrimidin-4-yl)-2,3-dihydrofuro[3,2-c]pyridin-4-yl)amino)methyl)-N-((4-methylmorpholin-2-yl)methyl)benzamide] |
| ≤ 3 | *** (ratio≥10) | ≤ 3 | [2H]C([2H])([2H])OCCCNC(=O)c1cccc(CNc2ncc(-c3ccnc(N)n3)c3c2CCO3)c1 [Example 6, 3-(((7-(2-aminopyrimidin-4-yl)-2,3-dihydrofuro[3,2-c]pyridin-4-yl)amino)methyl)-N-(3-(methoxy-d3)propyl)benzamide] |
| ≤ 3 | *** (ratio≥10) | ≤ 3 | Nc1nccc(-c2cnc(NCc3cccc(C(=O)NC[C@H]4CCCO4)c3)c3c2OCC3)n1 [Example 42, (R)-3-(((7-(2-Aminopyrimidin-4-yl)-2,3-dihydrofuro[3,2-c]pyridin-4-yl)amino)methyl)-N-((tetrahydrofuran-2-yl)methyl)benzamide] |
| ≤ 3 | ** (5≤ratio<10) | ≤ 3 | Nc1nccc(-c2cnc(NCc3cccc(C(=O)N[C@H]4C[C@@H](F)C4)c3)c3c2OCC3)n1 [Example 48, 3-(((7-(2-Aminopyrimidin-4-yl)-2,3-dihydrofuro[3,2-c]pyridin-4-yl)amino)methyl)-N-((1S,3S)-3-fluorocyclobutyl)benzamide] |
